Measured values published in patent publication US20260102383A1, “LPAR1 Inhibitors” (AbbVie Inc., priority 2024, published 2026).
Like-named read-outs stand apart in the source and are kept apart here.

Target: T1, human LPAR1 (Homo sapiens, UniProt Q92633)
T1 construct: host or cells: TangoEDG2-bla U2OS cells
Assay: Arrestin assay (Arrestin Reporter EDG2-bla U2OS), inhibition of LPA-stimulated signal
Type: cell-based
Conditions: TangoEDG2-bla U2OS cells expressing human LPAR1, 0.25 μM LPA
Method in brief: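 TangoEDG2-bla U2OS cells (1×10^4/well, plated 18-20 h) were preincubated 1 h at 37 °C with compound (12-point, 3-fold, 10 μM to 0.00006 μM), then stimulated 3 h with 0.25 μM LPA final. LiveBLAzer FRET B/G 460/530 nm emission ratio gave % inhibition; IC50 from 4-parameter variable-slope fit.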

[1] = read-out: Arrestin Reporter EDG2-bla U2OS Human Merged IC50

T1 sequence (Q92633 whole entry): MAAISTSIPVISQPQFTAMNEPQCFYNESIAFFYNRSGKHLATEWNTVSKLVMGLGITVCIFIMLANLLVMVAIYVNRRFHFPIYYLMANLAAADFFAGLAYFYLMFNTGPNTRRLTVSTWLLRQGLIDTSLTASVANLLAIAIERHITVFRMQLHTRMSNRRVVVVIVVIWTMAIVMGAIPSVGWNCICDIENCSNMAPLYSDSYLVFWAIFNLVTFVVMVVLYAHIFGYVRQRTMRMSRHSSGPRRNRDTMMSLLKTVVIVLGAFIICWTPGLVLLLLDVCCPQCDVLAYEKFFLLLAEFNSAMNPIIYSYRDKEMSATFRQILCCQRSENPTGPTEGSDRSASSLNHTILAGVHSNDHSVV

| IC50 [1] [nM] | IC50 (read-out: Arrestin Reporter EDG2-bla U2OS Human IC50) [nM] | Compound |
| --- | --- | --- |
| 125 |  | CC(C)c1ccnn1C1(C(=O)Nc2ccc(Cl)cc2OC(F)F)CCN(C[C@@H](C(=O)O)c2cnn(C)c2)CC1 [Compound 155, (2S)-3-[4-[[4-chloro-2-(difluoromethoxy)phenyl]carbamoyl]-4-(5-isopropylpyrazol-1-yl)-1-piperidyl]-2-(1-methylpyrazol-4-yl)propanoic acid] |
| 72 |  | CC(C)c1ccnn1C1(C(=O)Nc2ccc(Cl)cc2OC(F)F)CCN([C@@H]2CO[C@@H](C(=O)O)C2)CC1 [Compound 138, (2R,4S)-4-[4-[[4-chloro-2-(difluoromethoxy)phenyl]carbamoyl]-4-(5-isopropylpyrazol-1-yl)-1-piperidyl]tetrahydrofuran-2-carboxylic acid] |
| 87.3 |  | COC[C@@H](CN1CCC(C(=O)Nc2ccc(Cl)cc2OC(F)F)(n2ncc3c2C(C)(C)OC3)CC1)C(=O)O [Compound 211, (2R)-2-[[4-[[4-chloro-2-(difluoromethoxy)phenyl]carbamoyl]-4-(6,6-dimethyl-4H-furo[3,4-c]pyrazol-1-yl)-1-piperidyl]methyl]-3-methoxy-propanoic acid] |
| 28.8 |  | CC(C)c1ccnn1C1(C(=O)Nc2ccc(Cl)cc2OC(F)F)CCN(C[C@@H](CC#N)C(=O)O)CC1 [Compound 168, (2R)-2-[[4-[[4-chloro-2-(difluoromethoxy)phenyl]carbamoyl]-4-(5-isopropylpyrazol-1-yl)-1-piperidyl]methyl]-3-cyano-propanoic acid] |
| 95.5 |  | CC1(C)OCc2cnn(C3(C(=O)Nc4ccc(Cl)cc4OC(F)F)CCN(C[C@H](C(=O)O)C4CCOCC4)CC3)c21 [Compound 176, (2R)-3-[4-[[4-chloro-2-(difluoromethoxy)phenyl]carbamoyl]-4-(6,6-dimethyl-4H-furo[3,4-c]pyrazol-1-yl)-1-piperidyl]-2-tetrahydropyran-4-yl-propanoic acid] |
| 74.8 |  | CC(C)c1ccnn1C1(C(=O)Nc2ccc(Cl)cc2OC(F)F)CCN(CC(CCO)C(=O)O)CC1 (stereo not drawn) [Compound 133, 2-[[4-[[4-chloro-2-(difluoromethoxy)phenyl]carbamoyl]-4-(5-isopropylpyrazol-1-yl)-1-piperidyl]methyl]-4-hydroxy-butanoic acid] |
| 80.9 |  | CCC(=O)N1CC[C@](CN2CCC(C(=O)Nc3ccc(Cl)cc3OC(F)F)(n3nccc3C(C)C)CC2)(C(=O)O)C1 [Compound 101, (3R)-3-[[4-[[4-chloro-2-(difluoromethoxy)phenyl]carbamoyl]-4-(5-isopropylpyrazol-1-yl)-1-piperidyl]methyl]-1-propanoyl-pyrrolidine-3-carboxylic acid] |
| 119 |  | CC(C)c1ccnn1C1(C(=O)Nc2ccc(Cl)cc2OC(F)F)CCN(CC2(C(=O)O)CCN(C(=O)C[C@H]3CCOC3)CC2)CC1 [Compound 92, 4-[[4-[[4-chloro-2-(difluoromethoxy)phenyl]carbamoyl]-4-(5-isopropylpyrazol-1-yl)-1-piperidyl]methyl]-1-[2-[(3R)-tetrahydrofuran-3-yl]acetyl]piperidine-4-carboxylic acid] |
| 31.2 |  | Cc1cnn(CC(CN2CCC(C(=O)Nc3ccc(Cl)cc3OC(F)F)(n3nccc3C(C)C)CC2)C(=O)O)c1 (stereo not drawn) [Compound 189, 2-[[4-[[4-chloro-2-(difluoromethoxy)phenyl]carbamoyl]-4-(5-isopropylpyrazol-1-yl)-1-piperidyl]methyl]-3-(4-methylpyrazol-1-yl)propanoic acid] |
| 36.3 |  | CC(C)c1ccnn1C1(C(=O)Nc2ccc(Cl)cc2OC(F)F)CCN(C[C@@H](CO)C(=O)O)CC1 [Compound 182] |
| 25.5 |  | CO[C@H]1C[C@H]([C@@H](CN2CCC(C(=O)Nc3ccc(Cl)cc3OC(F)F)(n3nccc3C(C)C)CC2)C(=O)O)C1 [Compound 230, (2S)-3-[4-[[4-chloro-2-(difluoromethoxy)phenyl]carbamoyl]-4-(5-isopropylpyrazol-1-yl)-1-piperidyl]-2-((1r,3S)-3-methoxycyclobutyl) propanoic acid] |
| 82.5 |  | CC1(C)CCc2cnn(C3(C(=O)Nc4ccc(Cl)cc4OC(F)F)CCN(C[C@@H]4CC[C@H]4C(=O)O)CC3)c21 [Compound 115, (1R.2R)-2-[[4-[[4-chloro-2-(difluoromethoxy)phenyl]carbamoyl]-4-(6,6-dimethyl-4,5-dibydrocyclopenta[c]pyrazol-1-yl)-1-piperidyl]methyl] cyclobutanecarboxylic acid] |
| 31.3 |  | COc1cnn(CC(CN2CCC(C(=O)Nc3ccc(Cl)cc3OC(F)F)(n3nccc3C(C)C)CC2)C(=O)O)c1 (stereo not drawn) [Compound 193, 2-[[4-[[4-chloro-2-(difluoromethoxy)phenyl]carbamoyl]-4-(5-isopropylpyrazol-1-yl)-1-piperidyl]methyl]-3-(4-methoxypyrazol-1-yl)propanoic acid] |
| 76.9 |  | COCOCC(CN1CCC(C(=O)Nc2ccc(Cl)cc2OC(F)F)(n2nccc2C(C)C)CC1)C(=O)O (stereo not drawn) [Compound 135, 2-[[4-[[4-chloro-2-(difluoromethoxy)phenyl]carbamoyl]-4-(5-isopropylpyrazol-1-yl)-1-piperidyl]methyl]-3-(methoxymethoxy) propanoic acid] |
| 59.5 |  | CC(C)c1ccnn1C1(C(=O)Nc2ccc(Cl)cc2OC(F)F)CCN(C[C@@H](C(=O)O)[C@H](C)O)CC1 [Compound 223, (2R,3S)-2-[[4-[[4-chloro-2-(difluoromethoxy)phenyl]carbamoyl]-4-(5-isopropylpyrazol-1-yl)-1-piperidyl]methyl]-3-hydroxy-butanoic acid] |

The remaining lines, values behind:

| Compound | IC50 [1] [nM] | IC50 (read-out: Arrestin Reporter EDG2-bla U2OS Human IC50) [nM] |
| --- | --- | --- |
| CC(C)c1ccnn1C1(C(=O)Nc2ccc(Cl)cc2OC(F)F)CCN(C[C@]2(C(=O)O)CCCCO2)CC1 (single isomer, unassigned) [Compound 39, (2.5)-2-[[4-[[4-chloro-2-(difluoromethoxy)phenyl]carbamoyl]-4-(5-isopropylpyrazol-1-yl)-1-piperidyl]methyl]tetrahydropyran-2-carboxylic acid] | 13 |  |
| CC1(C)OCc2cnn(C3(C(=O)Nc4ccc(Cl)cc4OC(F)F)CCN(CC4(C(=O)O)CCOCC4)CC3)c21 [Compound 84, 4-[[4-[[4-chloro-2-(difluoromethoxy)phenyl]carbamoyl]-4-(6,6-dimethyl-4H-furo[3,4-c]pyrazol-1-yl)-1-piperidyl]methyl]tetrahydropyran-4-carboxylic acid] |  | 57.2 |
| COc1ccc([C@H](CN2CCC(C(=O)Nc3ccc(Cl)cc3OC(F)F)(n3nccc3C(C)C)CC2)C(=O)O)cc1 [Compound 28] | 4.82 |  |
| CC(C)c1ccnn1C1(C(=O)Nc2ccc(Cl)cc2OC(F)F)CCN(CC2(C(=O)O)CCN(C(=O)C34CC(F)(C3)C4)CC2)CC1 [Compound 72, 4-[[4-[[4-chloro-2-(difluoromethoxy)phenyl]carbamoyl]-4-(5-isopropylpyrazol-1-yl)-1-piperidyl]methyl]-1-(3-fluorobicyclo[1.1.1]pentane-1-carbonyl)piperidine-4-carboxylic acid] | 18.8 |  |
| CC(C)c1ccnn1C1(C(=O)Nc2ccc(Cl)cc2OC(F)F)CCN(CC2(C(=O)O)CC3CCC2C3)CC1 (stereo not drawn) [Compound 70, 2-[[4-[[4-chloro-2-(difluoromethoxy)phenyl]carbamoyl]-4-(5-isopropylpyrazol-1-yl)-1-piperidyl]methyl]norbomane-2-carboxylic acid] | 11.4 |  |
| CC(C)c1ccnn1C1(C(=O)Nc2ccc(Cl)cc2OC(F)F)CCN(CC2(C(=O)O)CCN(C(=O)CC3CCCC3)CC2)CC1 [Compound 47, 4-[[4-[[4-chloro-2-(difluoromethoxy)phenyl]carbamoyl]-4(5-isopropylpyrazol-1-yl)-1-piperidyl]methyl]-1-(2-cyclopentylacetyl) piperidine-4-carboxylic acid] | 14.8 |  |
| CC(C)c1ccnn1C1(C(=O)Nc2ccc(Cl)cc2OC(F)F)CCN(Cc2nc(C(=O)O)cs2)CC1 [Compound 37, 2-[[4-[[4-chloro-2-(difluoromethoxy)phenyl]carbamoyl]-4-(5-isopropylpyrazol-1-yl)-1-piperidyl]methyl]thiazole-4-carboxylic acid] | 14.6 |  |
| CCOCC1(C(=O)N2CCC(CN3CCC(C(=O)Nc4ccc(Cl)cc4OC(F)F)(n4nccc4C(C)C)CC3)(C(=O)O)CC2)CC1 [Compound 85, 4-[[4-[[4-chloro-2-(difluoromethoxy)phenyl]carbamoyl]-4-(5-isopropylpyrazol-1-yl)-1-piperidyl]methyl]-1-[1-(ethoxymethyl)cyclopropanecarbonyl] piperidine-4-carboxylic acid] | 53.7 |  |
| CC(C)c1ccnn1C1(C(=O)Nc2ccc(Cl)cc2OC(F)F)CCN(C[C@@]2(C(=O)O)CCCO2)CC1 [Compound 20, (2R)-2-[[4-[[4-chloro-2-(difluoromethoxy)phenyl]carbamoyl]-4-(5-isopropylpyrazol-1-yl)-1-piperidyl]methyl] tetrahydrofuran-2-carboxylic acid] | 28.8 |  |
| CCC(=O)N1CCC(CN2CCC(C(=O)Nc3ccc(Cl)cc3OC(F)F)(n3nccc3C(C)C)CC2)(C(=O)O)CC1 [Compound 41, 4-[[4-[[4-chloro-2-(difluoromethoxy)phenyl]carbamoyl]-4-(5-isopropylpyrazol-1-yl)-1-piperidyl]methyl]-1-propanoyl-piperidine-4-carboxylic acid] | 22.8 |  |
| COCC(OC)C(=O)N1CCC(CN2CCC(C(=O)Nc3ccc(Cl)cc3OC(F)F)(n3nccc3C(C)C)CC2)(C(=O)O)CC1 (stereo not drawn) [Compound 60, 4-[[4-[[4-chloro-2-(difluoromethoxy)phenyl]carbamoyl]-4-(5-isopropylpyrazol-1-yl)-1-piperidyl]methyl]-1-(2,3-dimethoxypropanoyl) piperidine-4-carboxylic acid] | 91.2 |  |
| CC(C)c1ccnn1C1(C(=O)Nc2ccc(Cl)cc2OC(F)F)CCN(CC2(C(=O)O)CCN(C(=O)C3CC3)CC2)CC1 [Compound 43, 4-[[4-[[4-chloro-2-(difluoromethoxy)phenyl]carbamoyl]-4-(5-isopropylpyrazol-1-yl)-1-piperidyl]methyl]-1-(cyclopropanecarbonyl) piperidine-4-carboxylic acid] | 27.6 |  |
